Article PMC12067128, “Macrocyclization: Enhancing Drug-like Properties of Discoidin Domain Receptor Kinase Inhibitors” (ACS Medicinal Chemistry Letters, 2025)
Read-outs that look alike come from different tables or passages of the source.

How the values were obtained:
[1] = Microsomes stability (clearance in human microsomes); assay type: in vitro ADME; details: pH 7.4, 0.8 mg protein/mL, 1 mM NADPH, 37 °C, read-out: CLint h mic (clearance in human microsomes)
Method: values in Caco-2 assay were: <10 nm/s = low level; 10-50 nm/s = medium level; >50 nm/s = high […]
Test compounds were incubated, in duplicate, at the concentration of 1 μM with liver microsomes (0.8 mg protein/mL) in Dulbecco’s buffer (pH 7.4) at 37 °C in the presence of 1 mM NADPH. At different time points (0, 5, 10, 20, 30, and 60 min), 50 μL aliquots of the incubates were taken, added with 80 μL of ice-cold acetonitrile, and 20 μL of 1 μM warfarin in acetonitrile (injection check) to stop the reaction, and samples were centrifuged. The supernatants were analyzed by LC−MS/MS for unchanged compounds. Test compounds were incubated with liver microsomes in Dulbecco’s buffer in the absence of NADPH for 0 and 60 min, as control. Midazolam at the concentration of 1 μM, was incubated with microsomes as positive control for phase I activity of microsomes. Control samples were processed as test compound samples.

[2] = ChromLogD chromatographic lipophilicity; assay type: physicochemical; details: C18 column, pH 7.4
Method: The chromatographic method was based on the differential retention times of test compounds on a C18 column (Luna C18(2), 30 x 2mm, […], 100 Å) under controlled liquid chromatography conditions, comparing retention times with those of standards (Benzyl Alcohol, p-Nitrophenol, Bromobenzene, Anthracene) with known log D values. Stock solutions (10 mM in DMSO) of test compounds were diluted to a final concentration of 1 mM. The mobile phases consisted of A (20mM Ammonium Acetate buffered to pH 7.4 with ammonia hydroxide) and B (ACN). The LC gradient profile was the following: a linear increase to 90% B during 0.0 to 1.3 min, hold at 90 % B during 1.3 to 1.53 min then back to 0.0% B from 1.53 to 1.60 min, hold at 0% B until the end of the run (2.00 min). 1 μL of the sample volume was injected, using a flow rate of 0.5 mL/min and a column temperature of 40°C. All compounds were detected by UPLC/MS analysis using a a Waters ACQUITY UPLC equipped with a Photo Diode Array (PDA) detector coupled with a Waters ACQUITY QDa single quadrupole mass spectrometer with an Electrospray ionization (ESI) source.
The retention times were obtained by processing data in Waters Openlynx. The standards are then plotted in excel and the best fit line was used as the basis for calculating the unknown LogD values from the retention times of the peaks obtained.

[3] = Chamelogk chameleonicity descriptor; assay type: physicochemical; details: >0.6 = chameleons, <0.6 = non-chameleons
Method: Finally, chameleonicity was measured with the recently described Chamelogk method (Table ), where 0.6 is the threshold value to distinguish chameleons from non-chameleons.

DDR1 = target: T1, DDR1 (Homo sapiens, UniProt Q08345); assay: PathHunter U2OS DDR1 Functional Assay (DDR1 cellular assay); assay type: cell-based; details: U2OS PathHunter cells, collagen II stimulation; read-out: Cell DDR1 IC50
T1 construct: ProLink™ (PK) tagged full-length DDR1b; host or cells: U2OS human osteosarcoma cells (PathHunter U2OS DDR1)
Method: page 17: In vitro Biology DDR1 cellular assay The activity of Discoidin Domain-containing Receptor protein kinase (DDR) inhibitors was determined using the PathHunter® U2OS DDR1 Functional Assay which employs Enzyme Fragment Complementation (EFC) technology, where the β-galactosidase (β-gal) enzyme is split into two fragments, ProLink (PK) and Enzyme Acceptor (EA). Independently these fragments […] β-gal enzyme. In the PathHunter® U2OS DDR1 Functional Assay, the U2OS human osteosarcoma cell line is modified to co-express a ProLinkTM (PK) tagged full-length DDR1b and an Enzyme Acceptor (EA) tagged SH2 domain. Collagen II, as a ligand, induces activation of DDR1b which results in cross-phosphorylation. The SH2-EA fusion protein then specifically binds the phosphorylated receptor resulting in complementation of the two fragments of β-gal and formation of a functional enzyme. β-gal activity is then quantitatively detected using a chemiluminescent substrate. PathHunter® Human U2OS DDR1 cells were prepared in AssayCompleteTM Cell Plating 16 Reagent (DiscoverX 93-0563R16A) and plated at 5000 cells/well in a 384-well white, clear-bottom, sterile plate (ThermoFisher 142762) and incubated for 90 minutes at 37 °C, 5% CO2. Test compounds were serially diluted from a top concentration of 10 mM (1000x final assay concentration) directly in a 384-well low-volume polypropylene plate (Greiner bio-one 784201) using an Echo 555 acoustic liquid handler (Labcyte). Test compounds were diluted in AssayCompleteTM Cell Plating 16 Reagent then added to cells using an Integra ViaFlow384 electronic reagent dispenser and pre-incubated at 37 °C, 5% CO2 for 30 minutes. Following compound pre-incubation, the cells were stimulated with 20 μg/ml Bovine Type II Collagen (DiscoverX 92-1090) with incubation for 20 hours at 37 °C, 5% CO2. Next, PathHunter Detection Reagent (DiscoverX 93-[…]) was added to the cells, incubated for 60 minutes at 25 °C in the dark, prior to capturing the chemiluminescent signal on a PHERAstar (BMG LABTECH). The percentage of inhibition was calculated for each concentration of compound using a 0.1% DMSO vehicle/Collagen II control response as a 0% inhibition and a 10 nM Dasatinib/Collagen II positive 17 page 18: control response as a 100% inhibition. The final assay concentration of the top of the test compound CRC was 10 μM. 18

T1 sequence (Q08345 19-913): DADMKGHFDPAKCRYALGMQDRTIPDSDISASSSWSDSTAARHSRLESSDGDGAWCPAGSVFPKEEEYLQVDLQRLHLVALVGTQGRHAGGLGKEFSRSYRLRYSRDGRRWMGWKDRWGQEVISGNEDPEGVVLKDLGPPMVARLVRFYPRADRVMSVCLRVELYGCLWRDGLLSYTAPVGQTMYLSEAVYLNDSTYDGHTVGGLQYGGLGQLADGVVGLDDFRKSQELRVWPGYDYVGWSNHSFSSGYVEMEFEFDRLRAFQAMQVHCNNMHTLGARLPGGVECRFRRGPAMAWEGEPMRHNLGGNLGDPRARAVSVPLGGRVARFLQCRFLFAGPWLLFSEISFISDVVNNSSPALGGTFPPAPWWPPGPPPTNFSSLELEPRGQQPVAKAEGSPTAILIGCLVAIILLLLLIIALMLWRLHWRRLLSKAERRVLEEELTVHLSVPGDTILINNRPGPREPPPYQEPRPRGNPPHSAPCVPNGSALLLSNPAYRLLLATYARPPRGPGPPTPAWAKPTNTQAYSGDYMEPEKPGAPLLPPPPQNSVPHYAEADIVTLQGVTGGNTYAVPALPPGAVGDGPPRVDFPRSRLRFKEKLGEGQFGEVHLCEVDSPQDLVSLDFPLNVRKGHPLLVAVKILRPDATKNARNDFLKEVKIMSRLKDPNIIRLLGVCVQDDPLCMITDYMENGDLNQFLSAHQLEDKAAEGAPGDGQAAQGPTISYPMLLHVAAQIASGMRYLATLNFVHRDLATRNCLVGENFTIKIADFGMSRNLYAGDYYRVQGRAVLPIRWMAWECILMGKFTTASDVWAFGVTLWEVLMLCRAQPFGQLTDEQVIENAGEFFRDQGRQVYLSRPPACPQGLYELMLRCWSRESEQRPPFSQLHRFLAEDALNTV

SMILES | microsomal CLint at 1 h, 1 µM ([1]; liver microsomes) [µL/min/mg] | chromatographic logD [2] | Chamelogk [3] | IC50 (DDR1) [µM] | microsomal CLint at 1 h, 1 µM ([1]; microsomes) [µL/min/mg]
O=C1COc2ccc(cc2)Nc2ccnc(n2)Nc2cnn(c2)CCCN1 [Compound 6b] | 12.1 ± 0.1 | 1.17 | 1.95 | > 3.15 | –
c1cc2nc(n1)Nc1cnn(c1)CCCNCCOc1ccc(cc1)N2 [Compound 6a] | – | 1.15 | 1.63 | 1.25 | 22.1 ± 1.4
Cn1cc2c3nc(ncc31)Nc1cnn(c1)CCCNCCOc1ccc-2cc1 [Compound 5a] | – | 1.75 | 1.76 | 0.125 | 80.5 ± 2.7
Cn1cc2c3nc(ncc31)Nc1cnn(c1)CCCNC(=O)COc1ccc-2cc1 [Compound 5b] | 88.5 ± 9.6 | 1.52 | 0.61 | 2 | –
